Experimental data as given in ChEMBL document CHEMBL5335856, “Structurally Diverse Alkaloids with Anti-Renal-Fibrosis Activity from the Centipede Scolopendra subspinipes mutilans” (J Nat Prod, 2024).
The source made the active and inactive calls. The rule behind the calls is not given here.

Experiments:
RAW264.7 = assay: Antiinflammatory activity against LPS-induced mouse RAW264.7 cells assessed as reduction in iNOS protein level at 20 uM; type: functional, cell-based
[1] = target: Collagen alpha-1(I) chain (Homo sapiens) (UniProt P02452); assay: Binding affinity to Col1a1 (unknown origin) at 200 uM preincubated for 2 hrs followed by pronase addition and measured after 30 mins by coomassie blue staining based SDS-PAGE gel analysis
Chain of Collagen alpha-1(I) chain (Homo sapiens) (P02452 whole entry): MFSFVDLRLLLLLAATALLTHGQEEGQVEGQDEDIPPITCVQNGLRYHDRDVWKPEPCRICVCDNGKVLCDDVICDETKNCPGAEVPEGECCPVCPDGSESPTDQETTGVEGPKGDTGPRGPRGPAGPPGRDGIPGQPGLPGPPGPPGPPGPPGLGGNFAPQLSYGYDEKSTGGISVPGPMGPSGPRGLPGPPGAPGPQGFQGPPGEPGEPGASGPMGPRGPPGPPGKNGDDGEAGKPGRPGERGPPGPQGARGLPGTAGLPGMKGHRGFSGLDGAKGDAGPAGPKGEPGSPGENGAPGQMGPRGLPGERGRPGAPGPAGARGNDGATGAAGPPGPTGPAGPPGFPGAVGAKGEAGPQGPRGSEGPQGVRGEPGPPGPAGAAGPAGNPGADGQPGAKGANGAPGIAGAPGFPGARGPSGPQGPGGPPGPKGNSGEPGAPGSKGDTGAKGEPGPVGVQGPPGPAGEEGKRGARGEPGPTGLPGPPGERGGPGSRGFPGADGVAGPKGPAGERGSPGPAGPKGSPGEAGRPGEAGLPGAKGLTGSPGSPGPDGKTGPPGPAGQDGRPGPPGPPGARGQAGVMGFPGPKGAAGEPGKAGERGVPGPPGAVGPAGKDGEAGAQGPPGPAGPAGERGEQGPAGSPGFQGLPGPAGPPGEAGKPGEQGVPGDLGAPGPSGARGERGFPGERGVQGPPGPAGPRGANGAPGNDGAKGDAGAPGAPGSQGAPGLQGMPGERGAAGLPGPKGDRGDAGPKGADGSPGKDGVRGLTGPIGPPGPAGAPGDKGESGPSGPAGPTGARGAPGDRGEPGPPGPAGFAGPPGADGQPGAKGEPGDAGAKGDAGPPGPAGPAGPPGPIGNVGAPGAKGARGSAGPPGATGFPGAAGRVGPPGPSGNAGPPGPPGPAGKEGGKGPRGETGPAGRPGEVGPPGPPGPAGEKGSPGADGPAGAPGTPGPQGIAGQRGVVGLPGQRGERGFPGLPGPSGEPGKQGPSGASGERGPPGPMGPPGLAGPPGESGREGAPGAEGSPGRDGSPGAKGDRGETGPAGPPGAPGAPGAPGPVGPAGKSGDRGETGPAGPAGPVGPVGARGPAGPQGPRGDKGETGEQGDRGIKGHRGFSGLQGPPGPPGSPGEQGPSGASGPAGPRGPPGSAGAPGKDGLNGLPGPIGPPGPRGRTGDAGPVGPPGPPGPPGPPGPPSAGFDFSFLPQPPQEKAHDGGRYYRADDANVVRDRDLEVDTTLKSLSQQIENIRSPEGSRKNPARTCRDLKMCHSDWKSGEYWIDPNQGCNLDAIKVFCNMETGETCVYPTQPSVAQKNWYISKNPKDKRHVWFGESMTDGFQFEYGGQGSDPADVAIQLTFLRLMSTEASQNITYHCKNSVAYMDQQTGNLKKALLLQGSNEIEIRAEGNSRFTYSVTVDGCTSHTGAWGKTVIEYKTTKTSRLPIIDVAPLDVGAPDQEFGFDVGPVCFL

[2] = target: Protein O-mannosyl-transferase TMTC3 (Homo sapiens) (UniProt Q6ZXV5); assay: Binding affinity to Tmtc3 (unknown origin) assessed as fold change in protein upregulation at 200 uM preincubated for 2 hrs followed by pronase addition and measured after 30 mins by coomassie blue staining based SDS-PAGE gel analysis
Chain of Protein O-mannosyl-transferase TMTC3 (Homo sapiens) (Q6ZXV5 whole entry): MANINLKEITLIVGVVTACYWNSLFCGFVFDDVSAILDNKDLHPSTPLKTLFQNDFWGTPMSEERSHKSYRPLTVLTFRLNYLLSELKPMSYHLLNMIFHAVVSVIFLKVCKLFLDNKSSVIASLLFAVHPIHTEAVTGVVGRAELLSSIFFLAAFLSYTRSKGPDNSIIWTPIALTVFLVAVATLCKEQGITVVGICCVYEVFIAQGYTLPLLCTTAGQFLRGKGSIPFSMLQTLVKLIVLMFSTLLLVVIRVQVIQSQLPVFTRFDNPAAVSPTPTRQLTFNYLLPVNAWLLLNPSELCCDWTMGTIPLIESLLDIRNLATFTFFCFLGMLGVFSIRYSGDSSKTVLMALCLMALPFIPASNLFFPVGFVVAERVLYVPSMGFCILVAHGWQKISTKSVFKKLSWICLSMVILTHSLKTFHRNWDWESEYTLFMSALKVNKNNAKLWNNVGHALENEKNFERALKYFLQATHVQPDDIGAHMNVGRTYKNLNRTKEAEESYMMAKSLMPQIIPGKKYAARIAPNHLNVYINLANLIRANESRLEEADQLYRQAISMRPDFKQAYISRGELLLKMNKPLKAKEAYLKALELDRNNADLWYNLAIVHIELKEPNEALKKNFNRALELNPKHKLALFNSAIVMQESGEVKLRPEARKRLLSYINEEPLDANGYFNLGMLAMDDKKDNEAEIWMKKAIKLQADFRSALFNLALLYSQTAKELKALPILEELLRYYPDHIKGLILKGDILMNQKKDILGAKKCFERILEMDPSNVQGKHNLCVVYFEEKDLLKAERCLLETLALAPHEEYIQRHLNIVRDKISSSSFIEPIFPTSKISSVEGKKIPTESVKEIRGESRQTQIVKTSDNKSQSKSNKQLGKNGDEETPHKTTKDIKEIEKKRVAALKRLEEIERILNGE

[3] = target: V-type proton ATPase subunit C 1 (Homo sapiens) (UniProt P21283); assay: Binding affinity to Atp6v1c1 (unknown origin) assessed as fold change in protein upregulation at 200 uM preincubated for 2 hrs followed by pronase addition and measured after 30 mins by coomassie blue staining based SDS-PAGE gel analysis
Chain of V-type proton ATPase subunit C 1 (Homo sapiens) (P21283 whole entry): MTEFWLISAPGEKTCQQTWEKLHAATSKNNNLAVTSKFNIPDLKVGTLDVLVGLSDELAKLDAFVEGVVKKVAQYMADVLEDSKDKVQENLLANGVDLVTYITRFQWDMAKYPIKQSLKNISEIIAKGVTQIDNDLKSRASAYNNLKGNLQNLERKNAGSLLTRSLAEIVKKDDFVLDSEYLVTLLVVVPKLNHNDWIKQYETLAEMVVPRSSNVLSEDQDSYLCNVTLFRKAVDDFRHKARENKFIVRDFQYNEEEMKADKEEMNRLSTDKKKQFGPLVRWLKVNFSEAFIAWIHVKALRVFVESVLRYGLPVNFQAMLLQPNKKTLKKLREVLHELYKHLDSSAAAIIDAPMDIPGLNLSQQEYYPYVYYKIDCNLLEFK

Activity [1]: Active
fold change (FC) [2]: 1.22
fold change (FC) [3]: 1.21
SMILES: COc1c(O)nc2c(O)cccc2c1OC
Activity (RAW264.7): Active
